Reference: patent US4684719A, “α,α-trehalose fatty acid diester derivative” (SS Pharmaceutical Co., Ltd., priority 1984, dated 1987)
Converted amounts (≈) assume the structure as drawn.

Key:
[1] = system: Ehrlich carcinoma; test: Activities against Ehrlich carcinoma (antitumor effect, survival time in mice); format: in vivo, ICR female mice; details: Mus musculus, ip, 720 h, intraperitoneal, once a day for 10 days, average survival time counted 30 days after implantation, read-out: Antitumor effect (T/C %)
Experimental: (1) Activities against Ehrlich carcinoma:
To 8 ICR female mice as a group, Ehrlich carcinoma cells were intraperitoneally implanted in an amount of 10^5 cells per mouse. From an elapsed time of 24 hours after the implantation, the compound (I) of this invention which was suspended in physiological saline containing 0.5% of CMC-Na was intraperitoneally administered in predetermined dosages (0.4 mg/kg, 4.0 mg/kg and 40.0 mg/kg), once a day and for 10 days.
Upon an elapsed time of 30 days after the implantation of the carcinoma, the survival time of each mouse was counted. The average survival time of Control Group (C) and that of Group (T), in which the compound of this invention was administered, were obtained respectively. Antitumor effect (T/C %) was then determined in accordance with the following equation. [formula]

[2] = system: Leukemia L-5178Y cells; test: Cell-killing activities (leukemia L-5178Y cells); format: cell-based; details: Mus musculus, L5178Y; 48 hours, 37° C., 5% CO2; live cells counted microscopically, probit diagram method
Experimental: (2) Cell-killing activities:
Leukemia L-5178Y cells were provided to a concentration of 2×10^5cells/ml in PRMI 1640 culture medium which contained 10% of bovine fetus albumin. To portions of the above-prepared culture medium, the compound of this invention was added to concentrations 3.125, 6.25, 12.5, 25, 50, 100 and 300 μg/ml respectively. After culturing them for 48 hours in a 5% CO2 incubator of 37° C., the numbers of live cells on respective portions of the culture were counted microscopically. Percentage proliferation was determined relative to Control and 50% Inhibitory Concentration (IC50) was obtained by the probit diagram method.

Row | Structure (SMILES) | response vs control in vivo at 0.4 mg/kg [1] [%] | response vs control in vivo at 4 mg/kg [1] [%] | response vs control in vivo at 40 mg/kg [1] [%] | IC50 [2] [µg/mL]
1 | CC(=O)O[C@H]1[C@H](O)[C@@H](O)[C@@H](O[C@H]2O[C@H](CO)[C@@H](OC(C)=O)[C@H](O)[C@H]2O)O[C@@H]1CO [Compound 11] | 154 | 105 | 114 | –
2 | CCCC(=O)O[C@H]1[C@H](O)[C@@H](O)[C@@H](O[C@H]2O[C@H](CO)[C@@H](OC(=O)CCC)[C@H](O)[C@H]2O)O[C@@H]1CO [Compound 12] | 141 | 142 | 114 | –
3 | CCCCCC(=O)O[C@H]1[C@H](O)[C@@H](O)[C@@H](O[C@H]2O[C@H](CO)[C@@H](OC(=O)CCCCC)[C@H](O)[C@H]2O)O[C@@H]1CO [Compound 13] | 127 | 120 | 103 | > 300
4 | CCCCCCCC(=O)O[C@H]1[C@H](O)[C@@H](O)[C@@H](O[C@H]2O[C@H](CO)[C@@H](OC(=O)CCCCCCC)[C@H](O)[C@H]2O)O[C@@H]1CO [Compound 14] | 136 | 117 | 183 | 35.1 (≈ 59 µM)
5 | CCCCCCCCCC(=O)O[C@H]1[C@H](O)[C@@H](O)[C@@H](O[C@H]2O[C@H](CO)[C@@H](OC(=O)CCCCCCCCC)[C@H](O)[C@H]2O)O[C@@H]1CO [Compound 15] | 121 | 152 | 188 | 11.2 (≈ 17.2 µM)
6 | CCCCCCCCCCCC(=O)O[C@H]1[C@H](O)[C@@H](O)[C@@H](O[C@H]2O[C@H](CO)[C@@H](OC(=O)CCCCCCCCCCC)[C@H](O)[C@H]2O)O[C@@H]1CO [Compound 16] | 102 | 180 | 225 | 8.4 (≈ 11.9 µM)
7 | CCCCCCCCCCCCCC(=O)O[C@H]1[C@H](O)[C@@H](O)[C@@H](O[C@H]2O[C@H](CO)[C@@H](OC(=O)CCCCCCCCCCCCC)[C@H](O)[C@H]2O)O[C@@H]1CO [Compound 17] | 98 | 203 | 203 | 12.6 (≈ 16.5 µM)
8 | CCCCCCCCCCCCCCCC(=O)O[C@H]1[C@H](O)[C@@H](O)[C@@H](O[C@H]2O[C@H](CO)[C@@H](OC(=O)CCCCCCCCCCCCCCC)[C@H](O)[C@H]2O)O[C@@H]1CO [Compound 18] | 125 | 216 | 189 | > 300
9 | CCCCCCCCCCCCCCCCCC(=O)O[C@H]1[C@H](O)[C@@H](O)[C@@H](O[C@H]2O[C@H](CO)[C@@H](OC(=O)CCCCCCCCCCCCCCCCC)[C@H](O)[C@H]2O)O[C@@H]1CO [Compound 19, 4,4'-di-O-stearoyl-α,α-trehalose] | 98 | 183 | 198 | –
10 | CCCCCCCCCCCCCCCCCCCCCC(=O)O[C@H]1[C@H](O)[C@@H](O)[C@@H](O[C@H]2O[C@H](CO)[C@@H](OC(=O)CCCCCCCCCCCCCCCCCCCCC)[C@H](O)[C@H]2O)O[C@@H]1CO [Compound 20] | 165 | 179 | 157 | –
